From ChEMBL document CHEMBL1137681, “Design, synthesis and characterization of N9/N7-substituted 6-aminopurines as VEGF-R and EGF-R inhibitors” (Eur J Med Chem, 2009)
Calls of active or inactive are those of the source.

Columns and labels:
[1] = target: Serine/threonine-protein kinase 26 (Homo sapiens) (UniProt Q9P289); experiment: Inhibition of human MST4 at 10 uM
[2] = target: Tyrosine-protein kinase SYK (Homo sapiens) (UniProt P43405); experiment: Inhibition of human SYK at 10 uM
[3] = target: Tyrosine-protein kinase Yes (Homo sapiens) (UniProt P07947); experiment: Inhibition of human YES1 at 10 uM
[4] = target: Inhibitor of nuclear factor kappa-B kinase subunit epsilon (Homo sapiens) (UniProt Q14164); experiment: Inhibition of human IKKe at 10 uM
[5] = target: Serine/threonine-protein kinase TBK1 (Homo sapiens) (UniProt Q9UHD2); experiment: Inhibition of human TBK1 at 10 uM
[6] = target: Homeodomain-interacting protein kinase 3 (Homo sapiens) (UniProt Q9H422); experiment: Inhibition of human HIPK3 at 10 uM
[7] = target: Serine/threonine-protein kinase PAK 5 (Homo sapiens) (UniProt Q9P286); experiment: Inhibition of human PAK5 at 10 uM
Sequence of Serine/threonine-protein kinase PAK 5 (Homo sapiens) (Q9P286 whole entry, looked up): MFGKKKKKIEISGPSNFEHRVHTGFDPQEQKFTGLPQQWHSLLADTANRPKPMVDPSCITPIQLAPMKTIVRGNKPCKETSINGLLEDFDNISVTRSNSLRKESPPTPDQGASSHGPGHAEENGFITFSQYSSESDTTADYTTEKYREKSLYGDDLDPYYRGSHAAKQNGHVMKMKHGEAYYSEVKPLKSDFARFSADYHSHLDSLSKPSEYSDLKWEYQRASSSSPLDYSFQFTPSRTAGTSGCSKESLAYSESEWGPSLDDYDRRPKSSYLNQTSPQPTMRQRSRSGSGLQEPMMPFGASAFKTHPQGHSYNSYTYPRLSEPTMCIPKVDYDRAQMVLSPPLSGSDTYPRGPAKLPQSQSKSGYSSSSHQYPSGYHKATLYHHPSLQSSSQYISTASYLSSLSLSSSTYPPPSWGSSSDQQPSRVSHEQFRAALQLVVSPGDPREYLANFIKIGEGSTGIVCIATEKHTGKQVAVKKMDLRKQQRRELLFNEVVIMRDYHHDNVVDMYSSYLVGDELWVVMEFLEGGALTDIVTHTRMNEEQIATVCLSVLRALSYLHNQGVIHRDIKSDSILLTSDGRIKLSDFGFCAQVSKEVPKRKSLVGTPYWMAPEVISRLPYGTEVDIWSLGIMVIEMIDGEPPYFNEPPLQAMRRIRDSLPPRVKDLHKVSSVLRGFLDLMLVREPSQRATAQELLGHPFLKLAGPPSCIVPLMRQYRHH

[8] = target: Serine/threonine-protein kinase PAK 6 (Homo sapiens) (UniProt Q9NQU5); experiment: Inhibition of human PAK6 at 10 uM
Sequence of Serine/threonine-protein kinase PAK 6 (Homo sapiens) (Q9NQU5 whole entry, looked up): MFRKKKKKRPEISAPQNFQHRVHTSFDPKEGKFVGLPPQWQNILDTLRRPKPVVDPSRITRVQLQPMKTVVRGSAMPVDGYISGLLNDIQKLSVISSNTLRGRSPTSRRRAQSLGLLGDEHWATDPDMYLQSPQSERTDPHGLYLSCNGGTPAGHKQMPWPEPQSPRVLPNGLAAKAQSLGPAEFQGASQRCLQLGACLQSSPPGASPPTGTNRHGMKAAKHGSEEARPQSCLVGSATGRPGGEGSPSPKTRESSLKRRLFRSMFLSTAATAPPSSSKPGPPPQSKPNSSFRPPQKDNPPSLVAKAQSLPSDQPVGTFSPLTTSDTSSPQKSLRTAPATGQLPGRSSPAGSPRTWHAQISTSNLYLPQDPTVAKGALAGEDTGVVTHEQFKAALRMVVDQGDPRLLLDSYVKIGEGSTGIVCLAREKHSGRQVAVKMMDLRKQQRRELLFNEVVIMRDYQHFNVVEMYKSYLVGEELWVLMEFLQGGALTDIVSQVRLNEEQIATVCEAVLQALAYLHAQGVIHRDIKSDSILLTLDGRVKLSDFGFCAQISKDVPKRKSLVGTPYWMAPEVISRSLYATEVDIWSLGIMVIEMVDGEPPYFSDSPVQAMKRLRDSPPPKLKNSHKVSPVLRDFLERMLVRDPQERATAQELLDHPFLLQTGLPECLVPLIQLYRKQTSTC

[9] = target: Serine/threonine-protein kinase pim-3 (Homo sapiens) (UniProt Q86V86); experiment: Inhibition of human PIM3 at 10 uM
[10] = target: Serine/threonine-protein kinase PLK1 (Homo sapiens) (UniProt P53350); experiment: Inhibition of human okadaic acid sensitive PLK1 at 10 uM
[11] = target: Maternal embryonic leucine zipper kinase (Homo sapiens) (UniProt Q14680); experiment: Inhibition of human MELK at 10 uM
Sequence of Maternal embryonic leucine zipper kinase (Homo sapiens) (Q14680 whole entry, looked up): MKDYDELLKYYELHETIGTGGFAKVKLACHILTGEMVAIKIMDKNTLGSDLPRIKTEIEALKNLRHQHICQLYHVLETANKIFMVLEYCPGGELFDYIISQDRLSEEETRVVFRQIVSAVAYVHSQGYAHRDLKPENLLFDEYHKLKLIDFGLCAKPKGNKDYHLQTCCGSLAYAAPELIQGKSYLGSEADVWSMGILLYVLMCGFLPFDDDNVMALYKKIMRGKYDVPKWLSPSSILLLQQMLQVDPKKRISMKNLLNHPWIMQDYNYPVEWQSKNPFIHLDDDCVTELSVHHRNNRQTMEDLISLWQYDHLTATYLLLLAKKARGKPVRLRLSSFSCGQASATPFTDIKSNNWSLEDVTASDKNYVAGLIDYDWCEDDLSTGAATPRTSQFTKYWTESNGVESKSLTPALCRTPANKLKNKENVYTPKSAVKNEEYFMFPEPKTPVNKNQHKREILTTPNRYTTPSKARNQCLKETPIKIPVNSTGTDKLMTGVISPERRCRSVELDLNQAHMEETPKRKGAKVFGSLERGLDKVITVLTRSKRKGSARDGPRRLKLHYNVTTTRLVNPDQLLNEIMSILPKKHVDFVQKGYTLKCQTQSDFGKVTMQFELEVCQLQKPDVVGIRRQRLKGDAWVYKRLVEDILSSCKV

[12] = target: Protein kinase C zeta type (Homo sapiens) (UniProt Q05513); experiment: Inhibition of human PKCzeta at 10 uM
[13] = target: Aurora kinase C (Homo sapiens) (UniProt Q9UQB9); experiment: Inhibition of human aurora C at 10 uM
Sequence of Aurora kinase C (Homo sapiens) (Q9UQB9 whole entry): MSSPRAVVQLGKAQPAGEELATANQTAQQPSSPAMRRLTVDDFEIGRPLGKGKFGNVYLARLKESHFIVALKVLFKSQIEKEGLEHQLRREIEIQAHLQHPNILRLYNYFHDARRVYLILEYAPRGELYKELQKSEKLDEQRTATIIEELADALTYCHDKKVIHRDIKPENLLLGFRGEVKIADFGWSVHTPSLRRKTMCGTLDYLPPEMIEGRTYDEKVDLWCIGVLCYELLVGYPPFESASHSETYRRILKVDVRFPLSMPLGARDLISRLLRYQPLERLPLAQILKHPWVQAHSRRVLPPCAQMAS

[14] = target: Insulin receptor-related protein (Homo sapiens) (UniProt P14616); experiment: Inhibition of human IRR at 10 uM
[15] = test system: Serine/threonine-protein kinase B-raf (Homo sapiens), P15056 [V600E]; experiment: Inhibition of BRAF V600E mutant up to 100 uM
[16] = target: Mitogen-activated protein kinase 1 (Mus musculus) (UniProt P63085); experiment: Inhibition of mouse MAPK2 at 10 uM
[17] = target: Mitogen-activated protein kinase 11 (Homo sapiens) (UniProt Q15759); experiment: Inhibition of SAPK2b at 10 uM
[18] = target: Mitogen-activated protein kinase 12 (Homo sapiens) (UniProt P53778); experiment: Inhibition of SAPK3 at 10 uM
[19] = target: Ribosomal protein S6 kinase alpha-1 (Rattus norvegicus) (UniProt Q63531); experiment: Inhibition of rat MAPKAP-K1a at 10 uM
[20] = target: MAP kinase-activated protein kinase 2 (Homo sapiens) (UniProt P49137); experiment: Inhibition of MAPKAP-K2 (delta 1-45) at 10 uM
Sequence of MAP kinase-activated protein kinase 2 (Homo sapiens) (P49137 whole entry, looked up): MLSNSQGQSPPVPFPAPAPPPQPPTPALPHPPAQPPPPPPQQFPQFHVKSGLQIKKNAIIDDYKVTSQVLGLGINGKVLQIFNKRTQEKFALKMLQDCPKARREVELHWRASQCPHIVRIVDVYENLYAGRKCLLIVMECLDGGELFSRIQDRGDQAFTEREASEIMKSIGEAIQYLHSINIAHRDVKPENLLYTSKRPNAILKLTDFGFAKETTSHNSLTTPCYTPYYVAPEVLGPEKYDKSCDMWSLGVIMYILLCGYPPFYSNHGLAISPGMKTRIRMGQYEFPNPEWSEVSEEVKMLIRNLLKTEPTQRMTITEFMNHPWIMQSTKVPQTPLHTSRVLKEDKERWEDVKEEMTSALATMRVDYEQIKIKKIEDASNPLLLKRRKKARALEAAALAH

[21] = target: Ribosomal protein S6 kinase alpha-5 (Homo sapiens) (UniProt O75582); experiment: Inhibition of MSK1 at 10 uM
Sequence of Ribosomal protein S6 kinase alpha-5 (Homo sapiens) (O75582 whole entry, looked up): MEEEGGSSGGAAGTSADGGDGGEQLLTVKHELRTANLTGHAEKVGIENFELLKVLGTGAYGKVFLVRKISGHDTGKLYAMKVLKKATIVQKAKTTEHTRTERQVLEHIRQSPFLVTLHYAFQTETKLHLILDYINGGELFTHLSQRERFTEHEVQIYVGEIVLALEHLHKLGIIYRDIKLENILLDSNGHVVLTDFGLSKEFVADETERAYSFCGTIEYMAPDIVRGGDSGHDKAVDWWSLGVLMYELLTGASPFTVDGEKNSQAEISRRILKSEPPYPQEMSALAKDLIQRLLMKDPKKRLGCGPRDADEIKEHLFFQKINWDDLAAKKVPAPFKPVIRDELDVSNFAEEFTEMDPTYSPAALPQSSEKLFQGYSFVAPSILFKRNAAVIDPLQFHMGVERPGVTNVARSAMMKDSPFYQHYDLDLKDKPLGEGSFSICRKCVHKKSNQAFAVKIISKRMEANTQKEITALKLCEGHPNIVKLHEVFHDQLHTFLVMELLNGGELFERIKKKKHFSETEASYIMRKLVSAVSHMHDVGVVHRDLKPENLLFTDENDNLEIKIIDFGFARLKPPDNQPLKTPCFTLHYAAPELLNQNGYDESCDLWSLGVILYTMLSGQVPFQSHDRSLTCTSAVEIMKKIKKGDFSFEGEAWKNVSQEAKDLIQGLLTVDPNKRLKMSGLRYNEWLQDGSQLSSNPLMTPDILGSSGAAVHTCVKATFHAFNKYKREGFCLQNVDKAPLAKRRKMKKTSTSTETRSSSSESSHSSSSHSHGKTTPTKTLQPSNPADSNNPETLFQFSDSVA

[22] = target: Protein kinase C alpha type (Homo sapiens) (UniProt P17252); experiment: Inhibition of PKCalpha at 10 uM
[23] = test system: Serine/threonine-protein kinase Sgk1 (Homo sapiens), O00141 [S422D]; experiment: Inhibition of SGK1 S422D mutant at 10 uM
Rattus norvegicus = species on record: Rattus norvegicus; experiment: Inhibition of rat AMPK at 10 uM
[24] = target: Serine/threonine-protein kinase Chk1 (Homo sapiens) (UniProt O14757); experiment: Inhibition of CHK1 at 10 uM
Sequence of Serine/threonine-protein kinase Chk1 (Homo sapiens) (O14757 whole entry): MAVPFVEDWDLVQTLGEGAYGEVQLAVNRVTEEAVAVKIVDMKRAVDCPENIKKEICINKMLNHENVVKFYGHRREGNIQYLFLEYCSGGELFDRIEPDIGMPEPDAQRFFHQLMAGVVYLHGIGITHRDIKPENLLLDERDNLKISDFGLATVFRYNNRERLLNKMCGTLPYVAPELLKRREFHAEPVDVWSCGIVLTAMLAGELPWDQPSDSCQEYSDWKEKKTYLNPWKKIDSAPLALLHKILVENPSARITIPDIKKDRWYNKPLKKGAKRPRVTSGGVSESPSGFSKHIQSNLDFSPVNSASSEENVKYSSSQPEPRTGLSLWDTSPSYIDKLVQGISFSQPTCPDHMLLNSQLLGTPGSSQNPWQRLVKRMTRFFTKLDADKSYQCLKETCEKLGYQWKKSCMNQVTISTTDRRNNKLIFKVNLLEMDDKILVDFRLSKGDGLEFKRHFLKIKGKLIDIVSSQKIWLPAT

[25] = Inhibition of CK2 at 10 uM
[26] = target: Proto-oncogene tyrosine-protein kinase LCK (Mus musculus) (UniProt P06240); experiment: Inhibition of mouse LCK at 10 uM
[27] = target: Cyclin-dependent kinase 2 (Homo sapiens) (UniProt P24941); experiment: Inhibition of CDK2/cyclin A at 10 uM
[28] = target: Casein kinase I isoform delta (Rattus norvegicus) (UniProt Q06486); experiment: Inhibition of rat CK1delta (1-294) at 10 uM
[29] = target: Dual specificity tyrosine-phosphorylation-regulated kinase 1A (Rattus norvegicus) (UniProt Q63470); experiment: Inhibition of rat DYRK1a at 10 uM
[30] = target: Serine/threonine-protein kinase Nek6 (Homo sapiens) (UniProt Q9HC98); experiment: Inhibition of NEK6 at 10 uM
Sequence of Serine/threonine-protein kinase Nek6 (Homo sapiens) (Q9HC98 whole entry): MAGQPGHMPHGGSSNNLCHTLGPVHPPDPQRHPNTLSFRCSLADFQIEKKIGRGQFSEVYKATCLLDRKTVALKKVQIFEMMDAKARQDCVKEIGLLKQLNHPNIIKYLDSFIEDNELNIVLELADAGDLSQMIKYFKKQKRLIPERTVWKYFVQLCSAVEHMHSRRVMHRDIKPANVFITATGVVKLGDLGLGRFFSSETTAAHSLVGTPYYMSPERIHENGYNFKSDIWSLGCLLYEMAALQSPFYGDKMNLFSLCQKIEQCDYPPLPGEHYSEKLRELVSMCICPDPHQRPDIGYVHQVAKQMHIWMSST

[31] = target: Inhibitor of nuclear factor kappa-B kinase subunit beta (Homo sapiens) (UniProt O14920); experiment: Inhibition of IKKb at 10 uM
[32] = target: Serine/threonine-protein kinase N2 (Homo sapiens) (UniProt Q16513); experiment: Inhibition of PRK2 at 10 uM
[33] = target: Calcium/calmodulin-dependent protein kinase type 1 (Homo sapiens) (UniProt Q14012); experiment: Inhibition of CAMK1 at 10 uM
[34] = target: Serine/threonine-protein kinase Nek7 (Homo sapiens) (UniProt Q8TDX7); experiment: Inhibition of NEK7 at 10 uM
Sequence of Serine/threonine-protein kinase Nek7 (Homo sapiens) (Q8TDX7 whole entry, looked up): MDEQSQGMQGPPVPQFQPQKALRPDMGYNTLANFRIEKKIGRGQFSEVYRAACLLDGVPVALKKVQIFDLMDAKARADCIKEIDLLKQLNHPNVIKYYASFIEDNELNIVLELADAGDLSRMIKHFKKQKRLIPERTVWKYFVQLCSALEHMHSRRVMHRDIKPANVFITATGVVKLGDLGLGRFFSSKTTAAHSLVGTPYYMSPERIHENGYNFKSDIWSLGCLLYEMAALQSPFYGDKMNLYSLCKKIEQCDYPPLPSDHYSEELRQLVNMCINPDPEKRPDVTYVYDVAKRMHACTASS

[35] = target: Mitogen-activated protein kinase 10 (Homo sapiens) (UniProt P53779); experiment: Inhibition of JNK3alpha1 at 10 uM
[36] = target: Mitogen-activated protein kinase 15 (Homo sapiens) (UniProt Q8TD08); experiment: Inhibition of ERK8 at 10 uM
Aurora kinase B = Aurora kinase B (Homo sapiens, UniProt Q96GD4); experiment: Inhibition of Aurora B at 10 uM
[37] = target: Serine/threonine-protein kinase Chk2 (Homo sapiens) (UniProt O96017); experiment: Inhibition of CHK2 at 10 uM
[38] = target: Proto-oncogene tyrosine-protein kinase Src (Gallus gallus) (UniProt P00523); experiment: Inhibition of chick SRC at 10 uM
[39] = target: Eukaryotic elongation factor 2 kinase (Homo sapiens) (UniProt O00418); experiment: Inhibition of human EF2K at 10 uM
[40] = target: MAP/microtubule affinity-regulating kinase 3 (Homo sapiens) (UniProt P27448); experiment: Inhibition of human MARK3 at 10 uM
[41] = target: Serine/threonine-protein kinase 3 (Homo sapiens) (UniProt Q13188); experiment: Inhibition of human MST2 at 10 uM
[42] = target: Dual specificity tyrosine-phosphorylation-regulated kinase 2 (Homo sapiens) (UniProt Q92630); experiment: Inhibition of human DYRK2 at 10 uM
[43] = target: Proto-oncogene tyrosine-protein kinase Src (Homo sapiens, UniProt P12931); experiment: Inhibition of SRC up to 100 uM
[44] = target: Vascular endothelial growth factor receptor 2 (Homo sapiens, UniProt P35968); experiment: Inhibition of VEGFR2 up to 100 uM
[45] = target: Vascular endothelial growth factor receptor 3 (Homo sapiens, UniProt P35916); experiment: Inhibition of VEGFR3 up to 100 uM

Measured: inhibition

Nc1ncnc2ncn(CC(=O)c3c[nH]c4ccccc34)c12
not listed: [43] | [44] | [45]
inactive: all other assays above

Nc1ncnc2c1ncn2CC(=O)c1ccccc1
inactive: [43] | [44]

Nc1ncnc2ncn(CC(=O)c3ccccc3)c12
inactive: [45]
